Measurements from patent publication US8859584B2, “TRPV1 antagonists” (AbbVie Inc., priority 2011, dated 2014).

What was measured:
human TRPV1 [1] = biological target: T1, human TRPV1 (Homo sapiens, UniProt Q8NER1); assay: Capsaicin Activation Assay (FLIPR intracellular Ca2+, recombinant HEK293 cells); format: cell-based; conditions: recombinant HEK293 cells expressing hTRPV1; 50 nM capsaicin; read-out: human TRPV1 capsaicin IC50
T1 construct: expressed in transfected cells
Method: (i) Capsaicin Activation Assay
Dulbecco's modified Eagle medium (DMEM) (with 4.5 mg/mL glucose) and fetal bovine serum were obtained from Hyclone Laboratories, Inc. (Logan, Utah). Dulbecco's phosphate-buffered saline (DPBS) (with 1 mg/mL glucose and 3.6 mg/l Na pyruvate, without phenol red), L-glutamine, hygromycin B, and Lipofectamine® were obtained from Life Technologies (Grand Island, N.Y.). G418 sulfate was obtained from Calbiochem-Novabiochem Corp. (San Diego, Calif.). Capsaicin (8-methyl-N-vanillyl-6-nonenamide) was obtained from Sigma-Aldrich, Co. (St. Louis, Mo.). Fluo-4 AM (N-[4-[6-[(acetyloxy)-methoxy]-2,7-difluoro-3-oxo-3H-xanthen-9-yl]-2-[2-[2-[bis[2-[(acetyloxy)methoxy]-2-oxyethyl]amino]-5-methylphenoxy]ethoxy]phenyl]-N-[2-[(acetyloxy)methoxy]-2-oxyethyl]-glycine, (acetyloxy)methyl ester) was purchased from Molecular Probes (Eugene, Oreg.).
(§1) Expression plasmids encoding the hTRPV1 cDNA were transfected into HEK293 cells using Lipofectamine®. Forty-eight hours after transfection, the neomycin-resistant cells were selected with growth medium containing 800 μg/mL Geneticin (Life Technologies, formerly Gibco BRL). Surviving individual colonies were isolated and screened for TRPV1 activity. Cells expressing recombinant TRPV1 were maintained at 37° C. in DMEM containing 4 mM L-glutamine, 300 μg/mL G418 (Calbiochem) and 10% fetal bovine serum under a humidified 5% CO2 atmosphere.
The functional activity of compounds at the TRPV1 receptor was determined by measurement of intracellular Ca^2+ levels ([Ca^2+]i) using the Fluorescence Imaging Plate Reader (FLIPR)TETRA®. All compounds were tested over a 12-point one-third-log concentration range. Compound stocks, 10 mM, were prepared in DMSO, and diluted serially across a 384-well plate using a Bravo BenchCel workstation (Agilent Technologies, Santa Clara, Calif.). A stock concentration of capsaicin (10 mM) was made in DMSO, and diluted in DPBS to a final concentration of 200 nM (4×). On the day prior to the experiment, the recombinant HEK293 cells expressing human TRPV1 (hTRPV1) were removed from tissue culture flasks and plated in growth medium into black-walled clear-bottom 384-well Biocoat™ poly-D-lysine assay plates (BD Biosciences, Bedford, Mass.) using a Multidrop® dispenser (ThermoScientific, Waltham, Mass.). […] The plated cells were incubated for 90-120 minutes in the dark at room temperature and then test compound was added to each well. Three minutes later, 200 nM capsaicin (4×) solution was added to each well in an amount sufficient to provide a final assay volume of 80 μL and capsaicin concentration of 50 nM. Fluorescence readings were made at 1 to 5 second intervals over the course of the experimental run. The peak increase in relative fluorescence units (minus baseline) was calculated, and expressed as a percentage of the 50 nM capsaicin (control) response.

human TRPV1 [2] = biological target: T1, human TRPV1; assay: Acid Activation Assay (pH 5.0, FLIPR intracellular Ca2+, recombinant HEK293 cells); format: cell-based; conditions: percentage of maximal pH 5.0-induced response remaining; HEK293 hTRPV1; max concentration 37.5 μM
Method: (ii) Acid Activation Assay
Dulbecco's modified Eagle's medium (DMEM) with 4.5 mg/mL D-glucose, fetal bovine serum, L-glutamine, and 2-morpholinoethanesulfonic acid (MES) were purchased from Sigma-Aldrich Co. (St. Louis, Mo.). […] The FLIPR® Calcium 4 assay kit was purchased from Molecular Devices (Sunnyvale, Calif.).
as §1
The functional activity of compounds at the TRPV1 receptor was determined by measurement of intracellular Ca^2+ levels ([Ca^2+]i) using the Fluorescence Imaging Plate Reader (FLIPR)TETRA®. […] Compound stocks, 10 mM, were prepared in DMSO, and diluted serially across a 384-well plate using a Bravo BenchCel workstation (Agilent Technologies, Santa Clara, Calif.). On the day prior to the experiment, the recombinant HEK293 cells expressing human TRPV1 (hTRPV1) were removed from tissue culture flasks and plated in growth medium into black-walled clear-bottom 384-well Biocoat™ poly-D-lysine assay plates (BD Biosciences, Bedford, Mass.) using a Multidrop® dispenser (ThermoScientific, Waltham, Mass.). […] The plated cells were incubated for 90-120 min in the dark at 25° C. The test compounds dissolved in DMSO were then added to the plates using an Agilent Bravo workstation (Agilent Technologies Inc., Santa Clara, Calif.). Three minutes later, a pH 5.0 solution was added to each well. Reagents were delivered at a rate of 40 μL/sec, and the final assay volume was 80 μL. Acidic pH solutions were prepared by titration of DPBS/MES with 1 N HCl. The intensity of the fluorescence was captured and digitally transferred to an interfaced PC. The maximum peak measured for the concentration range tested was used to calculate the corresponding peak increase in fluorescence over baseline (relative fluorescence units) which was expressed as the percentage (max % remain) of the maximal pH 5.0-induced response.

T1 sequence (Q8NER1 whole entry): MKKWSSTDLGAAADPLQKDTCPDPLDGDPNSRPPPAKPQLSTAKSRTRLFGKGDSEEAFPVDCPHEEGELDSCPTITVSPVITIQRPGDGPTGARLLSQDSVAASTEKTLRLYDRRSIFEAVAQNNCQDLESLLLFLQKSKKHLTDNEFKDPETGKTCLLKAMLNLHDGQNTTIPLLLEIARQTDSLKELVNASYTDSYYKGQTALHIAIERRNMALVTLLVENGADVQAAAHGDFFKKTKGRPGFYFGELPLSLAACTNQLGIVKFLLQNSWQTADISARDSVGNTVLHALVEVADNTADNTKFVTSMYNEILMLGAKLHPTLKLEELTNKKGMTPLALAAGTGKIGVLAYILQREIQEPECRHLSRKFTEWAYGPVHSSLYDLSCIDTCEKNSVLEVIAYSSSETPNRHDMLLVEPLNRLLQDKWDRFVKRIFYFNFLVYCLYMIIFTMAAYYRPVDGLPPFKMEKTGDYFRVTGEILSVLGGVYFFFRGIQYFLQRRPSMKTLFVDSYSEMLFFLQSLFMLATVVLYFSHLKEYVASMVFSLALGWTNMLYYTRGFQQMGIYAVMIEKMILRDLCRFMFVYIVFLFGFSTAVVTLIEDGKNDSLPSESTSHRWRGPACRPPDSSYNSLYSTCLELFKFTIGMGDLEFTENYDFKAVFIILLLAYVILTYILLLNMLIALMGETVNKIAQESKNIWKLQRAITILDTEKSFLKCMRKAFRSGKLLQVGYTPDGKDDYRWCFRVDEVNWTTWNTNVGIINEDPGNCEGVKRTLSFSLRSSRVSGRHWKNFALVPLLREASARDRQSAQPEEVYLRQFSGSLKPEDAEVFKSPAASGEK

Compound | IC50 (human TRPV1 [1]) [nM] | human TRPV1 H+ (max % remain) (human TRPV1 [2]) [%]
1-(5-chloro-2,3-dihydro-1H-inden-1-yl)-3-(7-fluoro-2-hydroxy-2,3-dihydro-1H-inden-4-yl)urea [Example 174] | 420 | 29
1-[(2R)-7-fluoro-2-hydroxy-2,3-dihydro-1H-inden-4-yl]-3-[(4R)-8-(trifluoromethyl)-3,4-dihydro-2H-chromen-4-yl]urea [Example 173] | 210 | 39
1-[(4R)-2,2-dimethyl-8-(trifluoromethoxy)-3,4-dihydro-2H-chromen-4-yl]-3-[(2R)-7-fluoro-2-hydroxy-2,3-dihydro-1H-inden-4-yl]urea [Example 172] | 32 | 47
1-[(4R)-7-fluoro-2,2-dimethyl-3,4-dihydro-2H-chromen-4-yl]-3-[(2R)-7-fluoro-2-hydroxy-2,3-dihydro-1H-inden-4-yl]urea [Example 158] | 600 | 48
CC(=O)Nc1nc2c(Oc3cc(-c4ccc(C(F)(F)F)cc4)ncn3)cccc2s1 [A, reference compound] | 20 | 10
CC(C)(C)c1ccc(Nc2ncnc3cc(-c4ncccc4C(F)(F)F)ccc23)cc1 [B, reference compound] | 55 | 1
CC(C)(C)c1ccc2c(c1)CC[C@H]2NC(=O)Nc1cccc2[nH]ncc12 [C, reference compound] |  | 1
Cc1cccnc1N1CC=C(C(=O)Nc2ccc(S(=O)(=O)C(F)(F)F)cc2)CC1 [E, reference compound] | 100 | 2
O=C(Nc1cccc2c1C[C@H](O)C2)N[C@@H]1CC(CF)(CF)Oc2c(F)cc(F)cc21 [Example 1, 1-[(4R)-6,8-difluoro-2,2-bis(fluoromethyl)-3,4-dihydro-2H-chromen-4-yl]-3-[(2R)-2-hydroxy-2,3-dihydro-1H-inden-4-yl]urea] | 300 | 61
O=C(Nc1cccc2c1C[C@H](O)C2)N[C@@H]1CC(CF)(CF)Oc2c(Cl)cccc21 [Example 2, 1-[(4R)-8-chloro-2,2-bis(fluoromethyl)-3,4-dihydro-2H-chromen-4-yl]-3-[(2R)-2-hydroxy-2,3-dihydro-1H-inden-4-yl]urea] | 160 | 80
CC1(C)C[C@@H](NC(=O)Nc2cccc3c2C[C@H](O)C3)c2ccc(C(F)(F)F)cc2O1 [Example 3, 1-[(4R)-2,2-dimethyl-7-(trifluoromethyl)-3,4-dihydro-2H-chromen-4-yl]-3-[(2R)-2-hydroxy-2,3-dihydro-1H-inden-4-yl]urea] | 27 | 55
O=C(Nc1cccc2c1C[C@H](O)C2)N[C@@H]1CCOc2c(OC(F)(F)F)cccc21 [Example 6, 1-[(2R)-2-hydroxy-2,3-dihydro-1H-inden-4-yl]-3-[(4R)-8-(trifluoromethoxy)-3,4-dihydro-2H-chromen-4-yl]urea] | 16 | 67
O=C(Nc1cccc2c1C[C@H](O)C2)N[C@@H]1CC2(CCC2)Oc2ccc(F)cc21 [Example 8, 1-[(4R)-6-fluoro-3,4-dihydrospiro[chromene-2,1′-cyclobutan]-4-yl]-3-[(2R)-2-hydroxy-2,3-dihydro-1H-inden-4-yl]urea] | 35 | 50
O=C(Nc1cccc2c1C[C@H](O)C2)N[C@@H]1CC(CF)(CF)Oc2c1ccc(Cl)c2F [Example 11, 1-[(4R)-7-chloro-8-fluoro-2,2-bis(fluoromethyl)-3,4-dihydro-2H-chromen-4-yl]-3-[(2R)-2-hydroxy-2,3-dihydro-1H-inden-4-yl]urea] | 56 | 64
C[C@]1(CF)C[C@@H](NC(=O)Nc2cccc3c2C[C@H](O)C3)c2ccc(Cl)cc2O1 [Example 15, 1-[(2R,4R)-7-chloro-2-(fluoromethyl)-2-methyl-3,4-dihydro-2H-chromen-4-yl]-3-[(2R)-2-hydroxy-2,3-dihydro-1H-inden-4-yl]urea] | 60 | 63
C[C@@]1(CF)C[C@@H](NC(=O)Nc2cccc3c2C[C@H](O)C3)c2ccc(Cl)cc2O1 [Example 16, 1-[(2S,4R)-7-chloro-2-(fluoromethyl)-2-methyl-3,4-dihydro-2H-chromen-4-yl]-3-[(2R)-2-hydroxy-2,3-dihydro-1H-inden-4-yl]urea] | 37 | 57
CC1(C)C[C@@H](NC(=O)Nc2cccc3c2C[C@H](O)C3)c2ccccc2O1 [Example 17, 1-[(4R)-2,2-dimethyl-3,4-dihydro-2H-chromen-4-yl]-3-[(2R)-2-hydroxy-2,3-dihydro-1H-inden-4-yl]urea] | 240 | 82
O=C(Nc1cccc2c1C[C@H](O)C2)N[C@@H]1CCOc2c1cccc2C(F)(F)F [Example 18, 1-[(2R)-2-hydroxy-2,3-dihydro-1H-inden-4-yl]-3-[(4R)-8-(trifluoromethyl)-3,4-dihydro-2H-chromen-4-yl]urea] | 26 | 58
CC1(C)C[C@@H](NC(=O)Nc2cccc3c2C[C@H](O)C3)c2cccc(OC(F)(F)F)c2O1 [Example 19, 1-[(4R)-2,2-dimethyl-8-(trifluoromethoxy)-3,4-dihydro-2H-chromen-4-yl]-3-[(2R)-2-hydroxy-2,3-dihydro-1H-inden-4-yl]urea] | 14 | 71
C[C@@]1(C(F)F)C[C@@H](NC(=O)Nc2cccc3c2C[C@H](O)C3)c2ccc(Cl)cc2O1 [Example 20, 1-[(2S,4R)-7-chloro-2-(difluoromethyl)-2-methyl-3,4-dihydro-2H-chromen-4-yl]-3-[(2R)-2-hydroxy-2,3-dihydro-1H-inden-4-yl]urea] | 36 | 64
O=C(Nc1cccc2c1C[C@H](O)C2)N[C@@H]1CCOc2cc(C(F)(F)F)ccc21 [Example 21, 1-[(2R)-2-hydroxy-2,3-dihydro-1H-inden-4-yl]-3-[(4R)-7-(trifluoromethyl)-3,4-dihydro-2H-chromen-4-yl]urea] | 89 | 74
O=C(Nc1cccc2c1C[C@H](O)C2)N[C@@H]1CC2(CCC2)Oc2ccccc21 [Example 22, 1-[(4R)-3,4-dihydrospiro[chromene-2,1′-cyclobutan]-4-yl]-3-[(2R)-2-hydroxy-2,3-dihydro-1H-inden-4-yl]urea] | 78 | 73
Cc1nc(Nc2cccc3c2C[C@H](O)CC3)oc1-c1ccc(C(F)(F)F)cc1 [Example D, reference compound] |  | 3
